This is an account of results in US20250034127A1, “AUTOPHAGY INDUCING COMPOUNDS AND USES THEREOF, IN PARTICULAR FOR DISEASES OF THE CNS” (Samsara Therapeutics Inc., priority 2021, published 2025).

This assay concerns primary culture of dopaminergic Tyrosine hydroxylase (TH)-positive neurons. Briefly: Cellular model of Parkinson's disease (MPTP/MPP+ injury). The class given is cell-based, rat. An excerpt: This model (run by Neuro-Sys SAS, France) is based on a primary culture of dopaminergic Tyrosine hydroxylase (TH)-positive neurons injured with the dopaminergic neurons-specific toxin (DA-toxin) 1-methyl-4-phenyl-1,2,3,6 tetrahydropyridine (MPTP, a prodrug of MPP^+) (Dauer and Przedborski, 2003). Any substances reducing DA-toxin neurotoxicity may be useful as a new therapeutic agent for the treatment or prevention of PD.
Primary culture of mesencephalic neurons: Rat dopaminergic neurons were cultured as described by Visanji et al., 2008 and Callizot et al., 2019. Briefly, pregnant female rat (Wistar) of 15 days of gestation were killed using a deep anesthesia with CO2 chamber and a cervical dislocation. The midbrains obtained from 15-day-old rat embryos (Janvier, France) were dissected under a microscope. The embryonic midbrains will be removed and placed in ice-cold medium of Leibovitz (L15) containing 2% of Penicillin-Streptomycin (PS) and 1% of bovine serum albumin (BSA). The ventral portion of the mesencephalic flexure, a region of the developing brain rich in dopaminergic neurons, was used for the cell preparations.
The midbrains were dissociated by trypsinisation for 20 min at 37° C. (solution at a final concentration of 0.05% trypsin and 0.02% EDTA). The reaction was stopped by the addition of Dulbecco's modified Eagle's medium (DMEM) containing DNAase I grade II (0.5 mg/mL) and 10% of foetal calf serum (FCS). Cells were then mechanically dissociated by 3 passages through a 10 ml pipette. Cells were then centrifuged at 180×g for 10 min at +4° C. on a layer of BSA (3.5%) in L15 medium. The supernatant was discarded, and the cell pellets re-suspended in a defined culture medium consisting of Neurobasal supplemented with B27 (2%), L-glutamine (2 mM) and 2% of PS solution and 10 ng/mL of Brain-derived neurotrophic factor (BDNF) and 1 ng/ml of Glial-Derived Neurotrophic Factor (GDNF). Viable cells were counted in a Neubauer cytometer using the trypan blue exclusion test. The cells were seeded at a density of 40,000 cells/well in 96 well-plates (pre-coated with poly-L-lysine) and maintained in a humidified incubator at 37° C. in 5% CO2/95% air atmosphere. Half of the medium was changed every 2 days with fresh medium. The wells of first and last lines and columns […] (to avoid any edge effect) and were be filled with sterile water.
• i) Pre-incubation. On day 6 of culture, the test compounds were dissolved in PBS or DMSO and incubated for 1 hour before the MPTP exposure. • ii) Injury. One hour after the application of test compound, MPTP was added to a final concentration of 4 μM, diluted in control medium still in presence of compounds/inhibitors for 48 h. Test compounds were tested on one culture in 96-well plate (n=6 culture wells per condition).
Immunostaining: TH and α-Synuclein. 48 Hours after intoxication, the cell culture supernatant was removed, and the cells were fixed by a solution of 4% paraformaldehyde in PBS, pH=7.3 for 20 min at room temperature. The cells were washed twice in PBS, and then permeabilized. Non-specific sites were blocked with a solution of PBS containing 0.1% of saponin and 1% FCS for 15 min at room temperature. The cultures were incubated with: (a) monoclonal anti-Tyrosine Hydroxylase (TH) antibody produced in mouse at dilution of 1/10000 in PBS containing 1% FCS, 0.1% saponin, for 2 hours at room temperature, and (b) polyclonal anti-alpha synuclein (α-synuclein) antibody produced in rabbit at dilution of 1/200 in PBS containing 1% FCS, 0.1% saponin, for 2 h at room temperature.
Automatic computer analysis. For each condition, 20 pictures (representing the whole well area) were automatically taken using ImageXpress® (Molecular Devices) at 10× magnification (20 pictures, for TH and α-synuclein into TH neurons) using the same acquisition parameters. From images, analyses was directly and automatically performed by MetaXpress® (Molecular Devices). […]

Where [1] appears, read: 500 nM, compared to MPP+ injury alone.

On to `CCN1CCC(N(C)C(=O)c2csc(-c3cnn(-c4ccccc4)c3)n2)CC1` [Compound 196, N-(1-ethylpiperidin-4-yl)-N-methyl-2-(1-phenyl-1H-pyrazol-4-yl)-1,3-thiazole-4-carboxamide], for which the “effects in the in vitro model of PD based on MPP+ injury” value is on record as “positive effects”. Besides, the “decrease in α-syn area per dopaminergic TH positive neuron” value (100 nM, compared to MPP+ injury alone) is listed as 26%. Moreover, under setting [1], the “decrease in α-syn area per dopaminergic TH positive neuron” value came out at 35% and the “increase in the number of dopaminergic TH positive neurons” value was found to be 26%. The “decrease in α-syn area per dopaminergic TH positive neuron” value (1 μM, compared to MPP+ injury alone) is 19%.
